Test results: ChEMBL document CHEMBL1201862, “PubChem BioAssay data set” (2004)
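A five-concentration, 48-hour dose response in 96-well plates underlies each endpoint, interpolated linearly between surrounding concentrations. Here, GI50 denotes the concentration required for 50% inhibition of growth.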 Calls of active or inactive are those of the source. Cut-off read from the data, not from the text of the source: active = GI50 up to about 1.1 µM and inactive = higher.

What was measured:
Assay in all cases: DTP human tumour cell line panel, 48 h
[1] = system: ACHN
[2] = system: NCI-H23
[3] = system: COLO 205
[4] = system: OVCAR-3
[5] = system: U-251
[6] = system: SNB-75
[7] = system: SNB-78
[8] = system: SNB-19
[9] = system: MOLT-4
[10] = system: HCT-116
[11] = system: EKVX
[12] = system: UO-31
[13] = system: HL-60
[14] = system: SR
[15] = system: CCRF-CEM
[16] = system: SF-539
[17] = system: T47D
[18] = system: MCF7
[19] = system: DU-145
[20] = system: NCI/ADR-RES

| SMILES | GI50 [1] | GI50 [2] | GI50 [3] | GI50 [4] | GI50 [5] | GI50 [6] | GI50 [7] | GI50 [8] | GI50 [9] | GI50 [10] | GI50 [11] | GI50 [12] | GI50 [13] | GI50 [14] | GI50 [15] | GI50 [16] | GI50 [17] | GI50 [18] | GI50 [19] | GI50 [20] |
| --- | --- | --- | --- | --- | --- | --- | --- | --- | --- | --- | --- | --- | --- | --- | --- | --- | --- | --- | --- | --- |
| CC(=O)N(CCN)CCN | > 100 µM (inactive) | > 10 µM (inactive) | > 10 µM (inactive) | > 10 µM (inactive) | > 10 µM (inactive) | > 100 µM (inactive) | > 10 µM (inactive) | > 10 µM (inactive) | > 10 µM (inactive) | > 10 µM (inactive) | > 100 µM (inactive) | > 10 µM (inactive) | > 10 µM (inactive) | > 10 µM (inactive) | > 10 µM (inactive) | – | – | – | – | – |
| CCOc1cc(/C=C/C=C/c2ccc(N(C)C)cc2)[s+]c2ccccc12 | 30.5 µM (inactive) | 34.6 µM (inactive) | 34.9 µM (inactive) | 14.2 µM (inactive) | 5.36 µM (inactive) | 28.4 µM (inactive) | 25.5 µM (inactive) | 31.3 µM (inactive) | 6.85 µM (inactive) | 21.7 µM (inactive) | 34.5 µM (inactive) | – | 0.857 µM (active) | – | 3.38 µM (inactive) | 14.1 µM (inactive) | – | – | – | – |
| Cc1ccccc1C(=O)c1ccccc1O | > 100 µM (inactive) | > 100 µM (inactive) | > 100 µM (inactive) | > 100 µM (inactive) | > 100 µM (inactive) | > 79.6 µM (inactive) | > 100 µM (inactive) | > 100 µM (inactive) | > 100 µM (inactive) | > 100 µM (inactive) | > 100 µM (inactive) | 24.6 µM (inactive) | > 100 µM (inactive) | – | > 100 µM (inactive) | > 100 µM (inactive) | – | – | – | – |
| Cc1csc(-c2cn(C)c3c2C(=O)C(=N)C=C3O)n1 | 3.71 µM (inactive) | 2.79 µM (inactive) | 4.53 µM (inactive) | 6.41 µM (inactive) | 37.1 µM (inactive) | 1.8 µM (inactive) | – | 7.38 µM (inactive) | 3.18 µM (inactive) | 8.3 µM (inactive) | 3.37 µM (inactive) | 5.9 µM (inactive) | 1.58 µM (inactive) | 2.52 µM (inactive) | 5.31 µM (inactive) | 5.01 µM (inactive) | 17.7 µM (inactive) | 3.27 µM (inactive) | 4.12 µM (inactive) | 9.98 µM (inactive) |
| COc1ccc(NN=C2C(=O)CCC2=O)cc1 | 74.3 µM (inactive) | 69 µM (inactive) | 47.2 µM (inactive) | > 100 µM (inactive) | > 100 µM (inactive) | > 100 µM (inactive) | > 100 µM (inactive) | > 100 µM (inactive) | > 100 µM (inactive) | > 100 µM (inactive) | > 100 µM (inactive) | 98.9 µM (inactive) | > 100 µM (inactive) | – | > 100 µM (inactive) | > 100 µM (inactive) | – | – | – | – |
| O=C1/C(=C/c2ccc(F)cc2)CNC/C1=C\c1ccc(F)cc1 | 1.71 µM (inactive) | 1.5 µM (inactive) | 1.44 µM (inactive) | 1.65 µM (inactive) | 0.41 µM (active) | 3.75 µM (inactive) | – | 1.59 µM (inactive) | 2.11 µM (inactive) | 0.27 µM (active) | 1.94 µM (inactive) | 1.81 µM (inactive) | 0.383 µM (active) | 0.305 µM (active) | 0.445 µM (active) | 0.865 µM (active) | 3.37 µM (inactive) | 0.813 µM (active) | 1.75 µM (inactive) | 2.95 µM (inactive) |
| N#CC(C#N)=Cn1c(=S)[nH]c2ccccc21 | > 100 µM (inactive) | > 100 µM (inactive) | > 100 µM (inactive) | > 100 µM (inactive) | > 100 µM (inactive) | 50.8 µM (inactive) | – | > 100 µM (inactive) | > 100 µM (inactive) | > 100 µM (inactive) | 78.3 µM (inactive) | > 100 µM (inactive) | > 100 µM (inactive) | > 100 µM (inactive) | > 100 µM (inactive) | > 100 µM (inactive) | > 100 µM (inactive) | > 100 µM (inactive) | > 100 µM (inactive) | > 100 µM (inactive) |
| Nc1nc(SC/C=C/c2ccccc2)c2[nH]cnc2n1 | 97.9 µM (inactive) | > 100 µM (inactive) | > 100 µM (inactive) | 30.4 µM (inactive) | > 100 µM (inactive) | 28.6 µM (inactive) | – | > 100 µM (inactive) | > 100 µM (inactive) | > 100 µM (inactive) | > 100 µM (inactive) | 46.8 µM (inactive) | 54.7 µM (inactive) | 45.7 µM (inactive) | 54.2 µM (inactive) | > 100 µM (inactive) | > 100 µM (inactive) | > 100 µM (inactive) | 94.2 µM (inactive) | 48.9 µM (inactive) |
| CCCCCCCCCCCC(=O)N(CCCCCCCCC)CC(O)C(O)C(OC1OC(CO)C(O)C(O)C1O)C(O)CO (stereo not drawn) | 17.7 µM (inactive) | 17.6 µM (inactive) | 20.7 µM (inactive) | 20.2 µM (inactive) | 20.4 µM (inactive) | 18.5 µM (inactive) | – | 20.6 µM (inactive) | 23.2 µM (inactive) | 17.7 µM (inactive) | 17.3 µM (inactive) | 17 µM (inactive) | 25.6 µM (inactive) | 24.7 µM (inactive) | 24 µM (inactive) | 21.4 µM (inactive) | 20.5 µM (inactive) | 35.8 µM (inactive) | 18.5 µM (inactive) | 20.1 µM (inactive) |
| COC1OC(COC(=O)c2cc(O)c(O)c(O)c2)C(OC(=O)c2cc(O)c(O)c(O)c2)C(OC(=O)c2cc(O)c(O)c(O)c2)C1OC(=O)c1cc(O)c(O)c(O)c1 (stereo not drawn) | 19 µM (inactive) | 78.5 µM (inactive) | 39.4 µM (inactive) | 29.9 µM (inactive) | 10.6 µM (inactive) | 26.3 µM (inactive) | – | 43.4 µM (inactive) | 11.8 µM (inactive) | 33 µM (inactive) | 25.9 µM (inactive) | 17.1 µM (inactive) | 18.4 µM (inactive) | 11.1 µM (inactive) | 12.8 µM (inactive) | 12.4 µM (inactive) | 52.4 µM (inactive) | > 100 µM (inactive) | 69.5 µM (inactive) | 29.2 µM (inactive) |
| N#CCC(=O)N/N=C1/C(=O)N(c2cc(Cl)ccc2Cl)C(=O)C(=O)C1c1nc2ccccc2s1 (stereo not drawn) | > 100 µM (inactive) | > 100 µM (inactive) | > 100 µM (inactive) | 54.6 µM (inactive) | 80.9 µM (inactive) | 38 µM (inactive) | > 100 µM (inactive) | 64.3 µM (inactive) | 45.9 µM (inactive) | 84.7 µM (inactive) | 43.4 µM (inactive) | 36.9 µM (inactive) | 43.9 µM (inactive) | – | 36.9 µM (inactive) | > 100 µM (inactive) | – | – | – | – |
| CCOC(=O)NC(Nc1ccc(C(=O)O)cc1)(C(F)(F)F)C(F)(F)F | > 100 µM (inactive) | > 100 µM (inactive) | > 100 µM (inactive) | > 100 µM (inactive) | > 100 µM (inactive) | > 100 µM (inactive) | – | > 100 µM (inactive) | > 100 µM (inactive) | > 100 µM (inactive) | > 100 µM (inactive) | > 100 µM (inactive) | > 100 µM (inactive) | > 100 µM (inactive) | > 100 µM (inactive) | > 100 µM (inactive) | > 100 µM (inactive) | > 100 µM (inactive) | > 100 µM (inactive) | > 100 µM (inactive) |
| CCOC(=O)C1=C(Nc2ccc(Cl)c(Cl)c2)OC/C1=N\NC(=O)Cc1ccccc1 | – | > 100 µM (inactive) | > 100 µM (inactive) | > 100 µM (inactive) | > 100 µM (inactive) | > 100 µM (inactive) | > 100 µM (inactive) | > 100 µM (inactive) | 61.1 µM (inactive) | 99.8 µM (inactive) | > 100 µM (inactive) | 56.2 µM (inactive) | > 100 µM (inactive) | – | > 100 µM (inactive) | > 100 µM (inactive) | – | – | – | – |
| CSc1c(C#N)c2n(c3ccccc13)c1ccccc1[n+]2C | 18.2 µM (inactive) | 25.5 µM (inactive) | 15 µM (inactive) | 37.4 µM (inactive) | 24.6 µM (inactive) | 37.2 µM (inactive) | – | > 10 µM (inactive) | 12.9 µM (inactive) | 6.4 µM (inactive) | 19.1 µM (inactive) | 18.5 µM (inactive) | 20.3 µM (inactive) | > 100 µM (inactive) | 16 µM (inactive) | 22.4 µM (inactive) | 30.1 µM (inactive) | 35.6 µM (inactive) | 29.2 µM (inactive) | 25.1 µM (inactive) |
| O=S(=O)(O)c1ccc(Nc2ccnc3cc(Cl)ccc23)cc1 | > 100 µM (inactive) | > 100 µM (inactive) | > 100 µM (inactive) | > 100 µM (inactive) | > 100 µM (inactive) | > 100 µM (inactive) | – | > 100 µM (inactive) | > 100 µM (inactive) | > 100 µM (inactive) | > 100 µM (inactive) | > 100 µM (inactive) | > 100 µM (inactive) | > 100 µM (inactive) | > 100 µM (inactive) | > 100 µM (inactive) | > 100 µM (inactive) | > 100 µM (inactive) | > 100 µM (inactive) | > 100 µM (inactive) |
| O=[N+]([O-])c1ccc(S(=O)(=O)Cc2ccccc2)c2nonc12 | 22 µM (inactive) | 19.1 µM (inactive) | 16.4 µM (inactive) | 20.8 µM (inactive) | 18.2 µM (inactive) | 27.6 µM (inactive) | – | 37 µM (inactive) | 18.7 µM (inactive) | 17.3 µM (inactive) | 21.1 µM (inactive) | 29.2 µM (inactive) | 18.3 µM (inactive) | 24.2 µM (inactive) | 9.06 µM (inactive) | 17.9 µM (inactive) | 18.9 µM (inactive) | 20.2 µM (inactive) | 18.7 µM (inactive) | 27 µM (inactive) |
